Our source for the IC50 values is ChEMBL document CHEMBL3886577, “N-((6-amino-pyridin-3-yl)methyl)-heteroaryl-carboxamides” (2016).

Structures are written as SMILES.

For orientation: IC50 means the concentration that inhibits the measured activity by half.

The target in the first assay is Plasma kallikrein (Homo sapiens, UniProt P03952). The experiment in a line: (§1) In-vitro Plasma Kallikrein Inhibition: Enzymatic reactions were conducted in ⿿assay buffer⿿, comprising 50 mM Hepes/NaOH at pH 7.8, 150 mM NaCl, 1 mM EDTA and 0.05% (w/v) CHAPS. For the determination of IC50 values, the assays were performed at room temperature in 384-well plates with a total assay volume of 25.25 ul per well. The test compound was dissolved in 90% (v/v) DMSO/water. For the assays, 250 nL of the 90% (v/v) DMSO/water solution or compound solution were added per well, followed by the addition of 12.5 ul protease solution (protease in assay buffer). The final assay concentration of the human plasma kallikrein was nominally 25 pM, the 11 compound concentrations in the dilution series were in the range form 1 nM to 100 uM. After 1 hour of pre-incubation at room temperature, the reactions were started by the addition of 12.5 ul substrate solution (in assay buffer, final assay concentration was 0.5 uM). After the addition of the substrate solution, the final DMSO concentration in the assay was 0.9% (v/v). Format: cell-free.
Plasma kallikrein, sequence (P03952 20-390 limits assumed): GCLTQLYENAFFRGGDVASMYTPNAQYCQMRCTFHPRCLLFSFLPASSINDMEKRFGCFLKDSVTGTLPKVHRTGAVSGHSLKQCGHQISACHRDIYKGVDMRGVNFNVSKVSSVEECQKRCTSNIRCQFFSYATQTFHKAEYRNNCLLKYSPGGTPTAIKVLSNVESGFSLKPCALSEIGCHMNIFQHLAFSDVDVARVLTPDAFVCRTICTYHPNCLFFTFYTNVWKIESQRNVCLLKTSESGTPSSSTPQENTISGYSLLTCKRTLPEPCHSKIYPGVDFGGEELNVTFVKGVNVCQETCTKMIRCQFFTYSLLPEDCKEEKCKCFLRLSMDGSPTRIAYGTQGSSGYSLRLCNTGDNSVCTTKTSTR
Plasma kallikrein, sequence (P03952 391-638 limits assumed): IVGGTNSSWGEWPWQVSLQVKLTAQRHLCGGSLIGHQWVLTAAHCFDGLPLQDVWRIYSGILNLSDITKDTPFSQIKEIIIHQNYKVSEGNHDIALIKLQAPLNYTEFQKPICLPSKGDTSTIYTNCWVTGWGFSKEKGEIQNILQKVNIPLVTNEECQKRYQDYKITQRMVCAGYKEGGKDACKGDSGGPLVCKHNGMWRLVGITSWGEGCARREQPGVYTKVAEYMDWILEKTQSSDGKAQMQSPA
`Cc1cc(N)nc(C)c1CNC(=O)c1nnn(Cc2ccccc2)c1C` returned a concentration for half-maximal inhibition (IC50) of 52100 nM. This counts as double-digit micromolar. Regarding `COc1cc(Cn2cc(C(=O)NCc3c(C)cc(N)nc3C)cn2)ccc1Cn1cccn1`, the IC50 was found to be 0.0912 nM.

`Cc1cc(N)nc(C)c1CNC(=O)c1nc(Cc2ccccc2)n(C)n1`: the IC50 stood at 7670 nM. `Cc1cc(N)nc(C)c1CNC(=O)c1cn(Cc2ccc(-c3ccccc3)cc2)nn1` returned an IC50 of 30 nM. Compound `Cc1cc(N)nc(C)c1CNC(=O)c1cnn(Cc2ccc(CO)cc2)c1` registered an IC50 of 150 nM. Still for that read-out and setting: next, `Cc1cc(N)nc(C)c1CNC(=O)c1cc(C)n(Cc2ccco2)c1C`: 739 nM. On to `COc1ccc2cc(Cn3cc(C(=O)NCc4c(C)cc(N)nc4C)cn3)ccc2c1`, for which half-maximal inhibition (IC50) required 5 nM.

`CNC(=O)COc1cc(N)nc(C)c1CNC(=O)c1cnn(Cc2ccccc2)c1`: the 50% inhibitory concentration (IC50) was found to be 70 nM.

Tested on in another assay: not listed separately
Described as §1.
Compound `Cc1nc(N)cc(OCC(=O)C(C)(C)C)c1CNC(=O)c1cn(Cc2ccccc2)nn1` gave an IC50 of 24 nM.
